Experimental findings from patent publication US20230118795A1, “ARYL OR HETEROARYL PYRIDONE OR PYRIMIDINE DERIVATIVE, PREPARATION METHOD AND USE THEREOF” (SUZHOU ZELGEN BIOPHARMACEUTICALS CO., LTD., priority 2020, published 2023) are described below.

In one assay the test system is NCI-H358 (KRAS^G12C mutation) cell. Nature of the assay: Cell assay of antiproliferative activity against NCI-H358 cell (Celltiter-Glo, 5 days). It is filed as cell-based. The conditions noted are these: 5 days incubation. The method, then:
Cell Assay of Antiproliferative Activity of Compounds Against NCI-H358 (KRAS^G12C Mutation) Cell.
40 μL phosphate buffer was added to the outer wells of the 384 microplate, and 40 μL cell suspension to be tested was added to the other wells. Then the microplate was incubated in a carbon dioxide incubator overnight.
The compounds to be tested were gradiently diluted, each compound was performed 10 concentration gradients (diluted from 50 μM to 0.003 μM) and added 100 nL to the corresponding wells in the microplate. After addition, 40 μl of phosphate buffer was added to each well in rows A and P and columns 1 and 24, and then the microplate was incubated in a carbon dioxide incubator for 5 days.
20 μL of Promega Celltiter-Glo reagent was added to each well of the microplate, and then the luminescence signal was stabilized by oscillating at room temperature for 10 min. Then PekinElmer Envision multi-label analyzer was used to read.
Finally, GraphPad Prism software was used to calculate the IC50 value of the compound and the fitting curve was drawn.
Anti-proliferative activity of the compounds of the present invention against NCI-H358 (KRAS^G12C mutation) cell was shown in Table 1.
A general note: ATP-based viability assays read luminescence as a measure of living cells.
Molecule `C=CC(=O)N1CCN(c2nc(=O)n(-c3cccnc3S(C)(=O)=O)c3nc(-c4c(O)cccc4F)c(F)cc23)[C@@H](C)C1` [Example 54, 4-((S)-4-acryloyl-2-methylpiperazin-1-yl)-6-fluoro-7-(2-fluoro-6-hydroxyphenyl)-1-(2-(methylsulfonyl)pyridin-3-yl) pyridino [2,3-d] pyrimidin-2(1H)-one] had an IC50 of 2500 nM.

`C=CC(=O)N1CCN(c2nc(=O)n(-c3c(C(C)C)cccc3S(C)(=O)=O)c3nc(-c4c(O)cccc4F)c(F)cc23)[C@@H](C)C1` (single isomer, unassigned) [Example 10A]: the midpoint of inhibition, the IC50, lay at 280 nM. Still for that read-out and setting: next, `C=CC(=O)N1CCN(c2nc(=O)n(-c3c(C)cccc3S(C)(=O)=O)c3nc(-c4c(O)cccc4F)c(F)cc23)[C@@H](C)C1` (single isomer, unassigned) [Example 87B]: < 100 nM; `C=CC(=O)N1CCN(c2nc(=O)n(-c3c(C)cccc3S(C)(=O)=O)c3nc(-c4c(O)cccc4F)c(F)cc23)CC1CC#N` (centres unmarked) [Example 57, 2-(1-acryloyl-4-(6-fluoro-7-(2-fluoro-6-hydroxyphenyl)-1-(2-methyl-6-(methylsulfonyl)phenyl)-2-oxo-1,2-dihydropyridino [2,3-d]pyrimidin-4-yl)piperazin-2-yl) acetonitrile]: 10000 nM; `C=CC(=O)N1CCN(c2nc(=O)n(-c3cccnc3S(C)(=O)=O)c3nc(-c4c(O)cccc4F)c(F)cc23)[C@@H](C)C1` [Example 88, 4-((S)-4-acryloyl-2-methylpiperazin-1-yl)-6-fluoro-7-(2-fluoro-6-hydroxyphenyl)-1-(2-(methylsulfonyl)pyridin-3-yl) pyridino [2,3-d] pyrimidin-2(1H)-one]: 1000 to 10000 nM. Take `C=CC(=O)N1CCN(c2nc(=O)n(-c3ccccc3S(C)(=O)=O)c3nc(-c4c(O)cccc4F)c(F)cc23)CC1CC#N` (centres unmarked) [Example 56, 2-(1-acryloyl-4-(6-fluoro-7-(2-fluoro-6-hydroxyphenyl)-1-(2-(methylsulfonyl)phenyl)-2-oxo-1,2-dihydropyridino [2,3-d]pyrimidin-4-yl)piperazin-2-yl) acetonitrile]: the IC50 worked out at 8000 nM.

As for `C=CC(=O)N1C[C@H](C)N(c2nc(=O)n(-c3c(CC)cccc3S(=O)(=O)C(C)C)c3nc(-c4c(O)cccc4F)c(F)cc23)C[C@H]1C` (single isomer, unassigned) [Example 82B], inhibition was half-maximal at 50 nM (IC50). In the case of `C=CC(=O)N1CCN(c2nc(=O)n(-c3c(CC)cccc3S(C)(=O)=O)c3nc(-c4c(O)cccc4F)c(F)cc23)[C@@H](C)C1` (single isomer, unassigned) [Example 5B], the midpoint of inhibition, the IC50, lay at 11 nM.

`C=CC(=O)N1CCN(c2nc(=O)n(-c3c(CC)cccc3S(C)(=O)=O)c3nc(-c4c(O)cccc4F)c(F)cc23)[C@@H](C)C1` [Example 5A] yielded an IC50 of 230 nM. Molecule `C=CC(=O)N1CCN(c2nc(=O)n(-c3c(C4CCC4)cccc3S(C)(=O)=O)c3nc(-c4c(O)cccc4F)c(F)cc23)[C@@H](C)C1` (single isomer, unassigned) [Example 25A] displayed an IC50 of 350 nM.

Still in this assay, the particulars now being: Homo sapiens, NCI-H358, 120 h, 5 days incubation.
For `C=CC(=O)N1CCN(c2nc(=O)n(-c3c(Cl)cccc3S(C)(=O)=O)c3nc(-c4c(O)cccc4F)c(F)cc23)[C@@H](C)C1` [Example 8, 4-((S)-4-acryloyl-2-methylpiperazin-1-yl)-1-(2-chloro-6-(methylsulfonyl)phenyl)-6-fluoro-7-(2-fluoro-6-hydroxyphenyl) pyridino [2,3-d] pyrimidin-2 (1H)-one], the IC50 was determined as 170 nM. Same read-out and setting: with `C=CC(=O)N1CCN(c2nc(=O)n(-c3ccccc3S(C)(=O)=O)c3nc(-c4c(O)cccc4F)c(F)cc23)C(CC#N)C1` (centres unmarked) [Example 60, 2-(4-acryloyl-1-(6-fluoro-7-(2-fluoro-6-hydroxyphenyl)-1-(2-(methylsulfonyl)phenyl)-2-oxo-1,2-dihydropyridino [2,3-d]pyrimidin-4-yl)piperazin-2-yl) acetonitrile] the figure was > 10000 nM.

In turn, `C=CC(=O)N1CCN(c2nc(=O)n(-c3cnccc3S(C)(=O)=O)c3nc(-c4c(O)cccc4F)c(F)cc23)[C@@H](C)C1` [Example 55] yielded an IC50 of 5300 nM.

Turning to `C=CC(=O)N1CCN(c2nc(=O)n(-c3c(C(C)C)cccc3S(C)(=O)=O)c3nc(-c4cccc(=O)n4C)c(F)cc23)[C@@H](C)C1` [Example 74, (S)-4-(4-acryloyl-2-methylpiperazin-1-yl)-6-fluoro-1-(2-isopropyl-6-(methylsulfonyl)phenyl)-7-(1-methyl-6-oxo-1,6-dihydropyridin-2-yl) pyridino[2,3-d] pyrimidin-2 (1H)-one], the IC50 is > 10000 nM. For `C=CC(=O)N1CCN(c2nc(=O)n(-c3c(C(C)C)cccc3S(C)(=O)=O)c3nc(-c4c(O)cccc4F)c(F)cc23)[C@@H](C)C1` [Example 10, 4-((S)-4-acryloyl-2-methylpiperazin-1-yl)-6-fluoro-7-(2-fluoro-6-hydroxyphenyl)-1-(2-isopropyl-6-(methylsulfonyl)phenyl) pyridino[2,3-d] pyrimidin-2(1H)-one], the half-maximal inhibitory concentration (IC50) was found to be 10 nM.

On to `C=CC(=O)N1CCN(c2nc(=O)n(-c3c(C(C)C)cccc3S(C)(=O)=O)c3nc(-c4c(C)ncn4C)c(F)cc23)[C@@H](C)C1` [Example 76, 4-((S)-4-acryloyl-methylpiperazin-1-yl)-7-(1,4-dimethyl-1H-imidazol-5-yl)-6-fluoro-1-(2-isopropyl-6-(methylsulfonyl)phenyl) pyridino [2,3-d] pyrimidin-2 (1H)-one], for which the IC50 was > 10000 nM.

Consider `C=CC(=O)N1CCN(c2nc(=O)n(-c3c(C(C)C)cccc3S(C)(=O)=O)c3nc(-c4c(Cl)cccc4C#N)c(F)cc23)[C@@H](C)C1` [Example 67], for which the IC50 was > 10000 nM. For the molecule `C=CC(=O)N1CCN(c2nc(=O)n(-c3cccnc3S(C)(=O)=O)c3nc(-c4c(O)cccc4F)c(F)cc23)CC1CC#N` (centres unmarked) [Example 58, 2-(1-acryloyl-4-(6-fluoro-7-(2-fluoro-6-hydroxyphenyl)-1-(2-(methylsulfonyl)pyridin-3-yl)-2-oxo-1,2-dihydropyridino [2,3-d]pyrimidin-4-yl)piperazin-2-yl) acetonitrile], 10000 nM corresponded to half-maximal inhibition (IC50).

In the case of `C=CC(=O)N1CCN(c2nc(=O)n(-c3c(C(C)C)cccc3S(C)(=O)=O)c3nc(-c4cccc(C#N)c4Cl)c(F)cc23)[C@@H](C)C1` [Example 65, (S)-3-(4-(4-acryloyl-2-methylpiperazin-1-yl)-6-fluoro-1-(2-isopropyl-6-(methylsulfonyl)phenyl)-2-oxo-1,2-dihydropyridino[2,3-d]pyrimidin-7-yl)-2-chlorobenzonitrile], the IC50 was > 10000 nM. The same measure, in the same setting: with `C=CC(=O)N1CCN(c2nc(=O)n(-c3c(C(C)C)cccc3S(C)(=O)=O)c3nc(-c4cccn(C)c4=O)c(F)cc23)[C@@H](C)C1` [Example 73, (S)-4-(4-acryloyl-2-methylpiperazin-1-yl)-6-fluoro-1-(2-isopropyl-6-(methylsulfonyl)phenyl)-7-(1-methyl-2-oxo-1,2-dihydropyridin-3-yl) pyridino[2,3-d] pyrimidin-2 (1H)-one] the figure was > 10000 nM; with `C=CC(=O)N1CCN(c2nc(=O)n(-c3c(C)cccc3S(C)(=O)=O)c3nc(-c4c(F)cccc4Cl)c(F)cc23)[C@@H](C)C1` [Example 59, 4-((S)-4-acryloyl-2-methylpiperazin-1-yl)-7-(2-chloro-6-fluorophenyl)-6-fluoro-1-(2-methyl-6-(methylsulfonyl)phenyl) pyridino [2,3-d] pyrimidin-2(1H)-one], 200 nM.

`C=CC(=O)N1CCN(c2nc(=O)n(-c3c(C(C)C)cccc3S(C)(=O)=O)c3nc(-c4c(F)cccc4C(=O)OC)c(F)cc23)[C@@H](C)C1` [Example 77]: the IC50 was > 10000 nM. Turning to `C=CC(=O)N1CCN(c2nc(=O)n(-c3c(C(C)C)cccc3S(C)(=O)=O)c3nc(-c4cncn4C)c(F)cc23)[C@@H](C)C1` [Example 70, (S)-4-(4-acryloyl-2-methylpiperazin-1-yl)-6-fluoro-1-(2-isopropyl-6-(methylsulfonyl)phenyl)-7-(1-methyl-1H-imidazol-5-yl) pyridino [2,3-d] pyrimidin-2 (1H)-one], the IC50 is > 10000 nM. As for `C=CC(=O)N1CCN(c2nc(=O)n(-c3c(C(C)C)cccc3S(C)(=O)=O)c3nc(-c4cccc(=O)[nH]4)c(F)cc23)[C@@H](C)C1` [Example 72, (S)-4-(4-acryloyl-2-methylpiperazin-1-yl)-6-fluoro-1-(2-isopropyl-6-(methylsulfonyl)phenyl)-7-(6-oxo-1,6-dihydropyridin-2-yl) pyridino[2,3-d] pyrimidin-2 (1H)-one], the IC50 is > 10000 nM. With `C=CC(=O)N1CCN(c2nc(=O)n(-c3c(C)ccnc3S(C)(=O)=O)c3nc(-c4c(O)cccc4F)c(F)cc23)[C@@H](C)C1` [Example 1, 4-((S)-4-acryloyl-2-methylpiperazin-1-yl)-6-fluoro-7-(2-fluoro-6-hydroxyphenyl)-1-(4-methyl-2-(methylsulfonyl)pyridin-3-yl) pyridino [2,3-d] pyrimidin-2 (1H)-one], half-maximal inhibition (IC50) was put at 90 nM. Take `C=CC(=O)N1CCN(c2nc(=O)n(-c3c(C)cccc3S(=O)(=O)C(C)C)c3nc(-c4c(O)cccc4F)c(F)cc23)[C@@H](C)C1` [Example 4, 4-((S)-4-acryloyl-2-methylpiperazin-1-yl)-6-fluoro-7-(2-fluoro-6-hydroxyphenyl)-1-(2-(isopropylsulfonyl)-6-methylphenyl) pyridino[2,3-d] pyrimidin-2(1H)-one]: half-maximal inhibition (IC50) required 420 nM.

The IC50 is the midpoint of a concentration-inhibition curve.
